# Measured values from patent publication US8501166B2, “Pyrimidinyl indole compounds” (Hutchison Medipharma Limited, priority 2010, dated 2013).
# Counter-ions that a name gives are not always drawn.
# Columns and labels:
# [1] = system: HT-29 human colon cancer xenograft; assay: Anti-tumor effects in human colon cancer HT-29 xenograft with/without CPT-11; format: in vivo, Balb/c nu/nu mice
# Method: IKKβ inhibitor has been reported to repress the HT-29 tumor growth when in combination with CPT-11 (Lagadec P, Griessinger E, Nawrot M P, et al. Br. J. Cancer (2008) 98, 335-344). The anti-tumor effect of the compound is then examined in a human colon cancer HT-29 xenograft in combination with CPT-11. The compound is tested for its anti-tumor effects in a human colon cancer HT-29 xenograft with/without the co-administration of CPT-11 essentially as described in a method reported in the literature (Lagadec P, Griessinger E, Nawrot M P, et al. Br. J. Cancer (2008) 98, 335-344).
# The HT-29 human colorectal adenocarcinoma cell line is obtained from ATCC and cultured in McCoy's 5a medium containing 10% fetal calf serum. Male Balb/c nu/nu mice (6-7 weeks old) are injected subcutaneously in the right lateral flank with 0.1 mL of cell suspension containing 3.0×10^6 cells. Mice are divided into six groups, seven days after cell implantation. The test compound is orally administered twice a day at 60 and 20 mg/kg. CPT-11 at 20 mg/kg is peritoneally administered twice a week. In combination treatment, CPT-11 is given 1 h after the administration of the test compound. […] Two orthogonal diameters of the tumor are measured with digital vernier calipers three times a week. Tumor volume (TV) is measured and recorded during treatment period by the formula: TV=LengthxWidth^2/2. […]
# DNBS-induced colitis = DNBS-induced colitis in rat; format: in vivo, Wistar rats; conditions: 3, 10, 30 and 60 mg/kg oral, six days
# Method: A compound is tested in DNBS-induced colitis model in rat essentially as described in a method reported in the literature (Gut. 2002; 50(3):440-1). Briefly, Wistar rats are used in the experiments. Following the induction of distal colitis by intra-colonic instillation of DNBS, the test compound at doses of 3, 10, 30, 60 mg/kg (bid) is administered to rats orally for six days. The negative control group is treated with the vehicle alone without DNBS instillation. The vehicle-control group rats are DNBS-induced and treated with vehicle. In the positive control group, sulfasalazine is orally administered to the rats at 300 mg/kg daily for six consecutive days. Animals are euthanized 24 h after the final treatment. Colon-to-body weight ratio and colonic damage scores are calculated for each animal. Vehicle treatment of rats results in a progressive worsening of clinical symptoms, achieving a maximum colonic damage score of 6.1±0.6 and colon-to-body weight ratio-colon length of 0.96±0.10 on day 7 after instillation. In this DNBS-induced inflammatory bowel disease model, rats treated with Example 2 at doses of 3, 10, 30 and 60 mg/kg show a marked reduction in colonic damage scores, colon-to-body weight-to-colon length ratio with more than 30% reduction.
# [2] = system: LPS-induced joint TNFα production; assay: LPS-induced acute joint inflammation in rat; format: in vivo, Wistar rats; conditions: oral 1 h before intra-articular LPS 10 μg
# Method: To further investigate the effects of IKKβ inhibitor on mechanism-relevant joint inflammation, the compound is screened for its ability to inhibit the LPS-induced joint acute inflammation in rat essentially as describe by a method reported in the literature (Matsukawa A, Yoshimura T, Miyamoto K, Ohkawara S, Yoshinaga M. Lab Invest. 1997, 76(5):629-38). Briefly, Wistar rats (female, body weight 150 g-170 g) are used in the experiments Animals (8/group) are given 1 to 100 mg/kg of the test compound [suspension in 35% Solutol (Macrogol 15 Hydroxystearate) & 60% PEG400 & 5% PG (propylene glycol)] or vehicle by oral gavage at 1 h prior to intra-articular (i.a.) administration of 10 μg of LPS in 10 μL of saline on left hind knee of each rat, using a 26-gauge needle. The right hind knee of each rat is injected with 10 μL of saline as a control. Two hour after LPS injection, each […] of the rats is lavaged with 100 μL of saline. The synovial fluids are collected and stored at -80° C. The […] is diluted 2 fold with the dilution buffer and 50 μL of the diluted sample is used for the measurement of TNFα levels using R&D System ELISA Kit based on the general Kit protocol. The plate is read on a SPECTRAMAX® M2e Plus Plate Reader and TNFα levels are analyzed using a standard curve. The drug levels are also measured by liquid chromatography-tandem mass spectrometry (LC-MS-MS).
# [3] = system: OVA-induced airway inflammation; assay: OVA-induced pulmonary inflammation in Brown-Norway rats; format: in vivo; conditions: Rattus norvegicus, 480 h; BN rats, 0.3 to 30 mg/kg oral bid, day 20 and 21; read-out: ED50, increase of total cells and eosinophiles in BAL fluids
# Method: To evaluate the effects of IKKβ inhibitors on antigen-driven airway inflammation in vivo, the compound is also tested in OVA-induced pulmonary inflammation model in rats essentially as described in a method reported in the literature (Yamamoto N, Takeshita K, Shichijo M, Kokubo T, Sato M, Nakashima K, Ishimori M, Nagai H, Li Y F, Yura T, Bacon K B. J Pharm. Exp Ther. 2003; 306(3):1174-81). Briefly, male BN rats weighing from 240 to 260 g are sensitized by intraperitoneal injection of 1 mL of saline containing 1 mg of OVA and 13 mg of aluminum hydroxide on days 1, 2 and 3. Rats serving as normal control received 1 mL of saline instead of OVA. The test compound at doses of 0.3, 1, 3 and 30 mg/kg (bid) is orally administered to rats on day 20 and 21. On day 21 rats are challenged with 1% OVA for 15 minutes with Buxco Mass Dosing System. On day 22, rats are anesthetized with 1% Pentobarbital Sodium. The thoracic and abdominal cavities are opened. Plasma is collected from centrifuged specimens. The trachea is dissected and transected. Through the insertion of an 18-gauge catheter into the trachea, the lungs are lavaged with a total of 15 mL of sterile PBS, and then placed into a specimen container. Cell-free BAL supernatants are obtained by centrifugation of BAL fluids. All serum and BAL supernatants are stored at −80° C. until use. […]
SMILES,"HT-29 tumor growth, combination with CPT-11 ([1]; 60 or 20 mg/kg p.o. + CPT-11 20 mg/kg i.p., P<0.05)","HT-29 tumor growth, single agent ([1]; 60 or 20 mg/kg, p.o., twice a day)","reduction in colonic damage scores, colon-to-body weight-to-colon length ratio (DNBS-induced colitis)",ED50 [2] [mg/kg],ED50 [3] [mg/kg]
"O=C(NC1CC1)c1cccc2[nH]c(-c3nc(N[C@@H]4CCC[C@@H]4O)ncc3Cl)cc12 [Example 1, 2-{5-Chloro-2-[(1R,2S)-2-hydroxycyclopentylamino]pyrimidin-4-yl}-N-cyclopropyl-1H-indole-4-carboxamide hydrochloride]",enhances the anti-tumor effect of CPT-11,does not inhibit HT-29 tumor growth,,,
"Cl.O=C(NC1CC1)c1cccc2[nH]c(-c3nc(N[C@@H]4CCC[C@H]4O)ncc3Cl)cc12 [Example 2, 2-{5-Chloro-2-[(1R,2R)-2-hydroxycyclopentylamino]pyrimidin-4-yl}-N-cyclopropyl-1H-indole-4-carboxamide hydrochloride]",,,more than 30%,23.4,0.49
